Results on 7 compounds are retold here after patent US20250215030A1, “STAT MODULATORS AND USES THEREOF” (Recludix Pharma, Inc., priority 2022, published 2025).

The target of test [1] is T1, Recombinant STAT6 protein (STAT6(W123-T658)) (Homo sapiens, UniProt P42226).
T1 construct: STAT6(W123-T658)
T1 sequence (P42226 123-658): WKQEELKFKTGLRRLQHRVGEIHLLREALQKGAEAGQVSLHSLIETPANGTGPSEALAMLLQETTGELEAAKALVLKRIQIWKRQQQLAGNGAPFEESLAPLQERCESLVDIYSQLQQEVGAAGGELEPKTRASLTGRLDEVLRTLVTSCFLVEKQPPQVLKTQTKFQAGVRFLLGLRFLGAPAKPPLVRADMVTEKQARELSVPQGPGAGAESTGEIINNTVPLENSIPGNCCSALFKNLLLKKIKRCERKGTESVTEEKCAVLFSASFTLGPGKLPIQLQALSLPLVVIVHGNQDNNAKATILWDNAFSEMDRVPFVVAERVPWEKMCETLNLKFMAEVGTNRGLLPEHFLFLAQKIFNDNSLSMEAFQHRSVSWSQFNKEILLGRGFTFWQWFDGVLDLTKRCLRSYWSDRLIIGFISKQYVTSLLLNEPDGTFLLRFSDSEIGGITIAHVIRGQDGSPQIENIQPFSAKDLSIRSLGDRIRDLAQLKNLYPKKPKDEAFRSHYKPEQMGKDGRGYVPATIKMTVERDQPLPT
The experiment in a line: STAT6 Fluorescence Polarization (FP) Assay. The test is classed as binding. Conditions: STAT6(W123-T658) 250 nM, probe 5-FAM-ApYKPFQDLI-NH2 2 nM, 45-minute incubation. A digest of the protocol:
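Competitive displacement of a fluorescent phosphotyrosine peptide (2 nM) from recombinant STAT6 W123-T658 (250 nM), 45 min at room temperature in 10 mM HEPES pH 7.4, 50 mM NaCl, 2 mM DTT. mP fitted against log compound for IC50, grouped A (≤300 nM) to D (>30 μM).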

Test [2] addresses T2, Recombinant STAT3 protein (STAT3(G127-I722)) (Homo sapiens, UniProt P40763).
T2 construct: STAT3(G127-I722)
The experiment in a line: STAT3 Fluorescence Polarization (FP) Assay. The format is binding. The note with it: STAT3(G127-I722) 25 nM, probe 5-FAM-GpYLPQTV-NH2 2 nM, 45-minute incubation. A digest of the protocol: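 Serially diluted compounds (1% DMSO) were mixed with 2 nM fluorescent phosphotyrosine peptide and 25 nM STAT3 construct G127-I722, pH 7.4, incubated 45 min at room temperature. IC50 values from fitted polarization curves are reported as categories A (≤100 nM), B, C, D (>10 μM).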

T2 sequence (P40763 127-722, species assumed): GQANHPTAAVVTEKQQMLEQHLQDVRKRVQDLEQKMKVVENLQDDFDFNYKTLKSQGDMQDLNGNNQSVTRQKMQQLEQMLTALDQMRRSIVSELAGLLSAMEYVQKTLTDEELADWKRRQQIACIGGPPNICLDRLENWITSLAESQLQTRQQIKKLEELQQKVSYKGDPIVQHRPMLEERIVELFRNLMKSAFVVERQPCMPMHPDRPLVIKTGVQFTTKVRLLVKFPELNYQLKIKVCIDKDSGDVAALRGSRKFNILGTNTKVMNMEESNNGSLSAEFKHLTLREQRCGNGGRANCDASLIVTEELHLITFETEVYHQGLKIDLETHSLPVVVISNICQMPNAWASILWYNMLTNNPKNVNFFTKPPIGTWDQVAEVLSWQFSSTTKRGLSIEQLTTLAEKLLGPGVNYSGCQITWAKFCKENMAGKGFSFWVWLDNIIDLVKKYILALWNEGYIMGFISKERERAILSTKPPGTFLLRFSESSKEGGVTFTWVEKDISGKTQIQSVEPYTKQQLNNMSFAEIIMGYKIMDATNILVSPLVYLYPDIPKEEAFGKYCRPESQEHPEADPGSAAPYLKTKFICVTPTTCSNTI

Consider `O=C(N[C@H]1C[C@@H]2C[C@@H]2C[C@H]2CC[C@@H](C(=O)N3CC(c4cc[nH]n4)C3)N2C1=O)c1cc2cc(C(F)(F)P(=O)(O)O)ccc2s1` [Compound 111, ((2-(((3S,6S,7aS,8aR,9aR)-3-(3-(1H-pyrazol-3-yl)azetidine-1-carbonyl)-5-oxodecahydro-1H-cyclopropa[d]pyrrolo[1,2-a]azocin-6-yl)carbamoyl)benzo[b]thiophen-5-yl)difluoromethyl)phosphonic acid], for which the values for the IC50 in test [1] and in test [2] were 300 to 3000 nM and below 100 nM, respectively.

As to `O=C(N[C@H]1C[C@@H]2C[C@@H]2C[C@H]2CC[C@@H](C(=O)N[C@@H]3CCN(c4cccnc4)C3)N2C1=O)c1cc2cc(C(F)(F)P(=O)(O)O)ccc2s1` [Compound 112, (difluoro(2-(((3S,6S,7aS,8aR,9aR)-5-oxo-3-(((R)-1-(pyridin-3-yl)pyrrolidin-3-yl)carbamoyl)decahydro-1H-cyclopropa[d]pyrrolo[1,2-a]azocin-6-yl)carbamoyl)benzo[b]thiophen-5-yl)methyl)phosphonic acid], the concentration for half-maximal inhibition (IC50) in test [1] is 300 to 3000 nM; in test [2], below 100 nM.

For `O=C(N[C@H]1C[C@@H]2C[C@@H]2C[C@H]2CC[C@@H](C(=O)N3CCN(c4ccccn4)CC3)N2C1=O)c1cc2cc(C(F)(F)P(=O)(O)O)ccc2s1` [Compound 113, (difluoro(2-(((3S,6S,7aS,8aR,9aR)-5-ox0-3-(4-(pyridin-2-yl)piperazine-1-carbonyl)decahydro-1H-cyclopropa[d]pyrrolo[1,2-a]azocin-6-yl)carbamoyl)benzo[b]thiophen-5-yl)methyl)phosphonic acid], the values for the IC50 in test [1] and in test [2] were 3000 to 30000 nM and 100 to 1000 nM, respectively.

Turning to `CO[C@@H]1CCN(C(=O)C2CN(C(=O)[C@@H]3CC[C@@H]4C[C@H]5C[C@H]5C[C@H](NC(=O)c5cc6cc(C(F)(F)P(=O)(O)O)ccc6s5)C(=O)N43)C2)C1` [Compound 114, (difluoro(2-(((3S,6S,7aS,8aR,9aR)-3-(3-((R)-3-methoxypyrrolidine-1-carbonyl)azetidine-1-carbonyl)-5-oxodecahydro-1H-cyclopropa[d]pyrrolo[1,2-a]azocin-6-yl)carbamoyl)benzo[b]thiophen-5-yl)methyl)phosphonic acid], the concentration for half-maximal inhibition (IC50) in test [1] is 3000 to 30000 nM; in test [2], below 100 nM.

In the case of `O=C(N[C@H]1C[C@@H]2C[C@@H]2C[C@H]2CC[C@@H](C(=O)N3CCN(C4CCOCC4)CC3)N2C1=O)c1cc2cc(C(F)(F)P(=O)(O)O)ccc2s1` [Compound 115, (difluoro(2-(((3S,6S,7aS,8aR,9aR)-5-ox0-3-(4-(tetrahydro-2H-pyran-4-yl)piperazine-1-carbonyl)decahydro-1H-cyclopropa[d]pyrrolo[1,2-a]azocin-6-yl)carbamoyl)benzo[b]thiophen-5-yl)methyl)phosphonic acid], the figures for the IC50 in test [1] and in test [2] were 300 to 3000 nM and 100 to 1000 nM, respectively.

Take `CC(=O)N1CC[C@@H](NC(=O)[C@@H]2CC[C@@H]3C[C@H]4C[C@H]4C[C@H](NC(=O)c4cc5cc(C(F)(F)P(=O)(O)O)ccc5s4)C(=O)N32)C1` [Compound 116, ((2-(((3S,6S,7aS,9aR)-3-(((R)-1-acetylpyrrolidin-3-yl)carbamoyl)-5-oxodecahydro-1H-cyclopropa[d]pyrrolo[1,2-a]azocin-6-yl)carbamoyl)benzo[b]thiophen-5-yl)difluoromethyl)phosphonic acid]: the IC50 in test [1] was 300 to 3000 nM; in test [2] it was below 100 nM.

Take `CC(=O)N1CC[C@H](NC(=O)[C@@H]2CC[C@@H]3C[C@H]4C[C@H]4C[C@H](NC(=O)c4cc5cc(C(F)(F)P(=O)(O)O)ccc5s4)C(=O)N32)C1` [Compound 117, ((2-(((3S,6S,7aS,8aR,9aR)-3-(((S)-1-acetylpyrrolidin-3-yl)carbamoyl)-5-oxodecahydro-1H-cyclopropa[d]pyrrolo[1,2-a]azocin-6-yl)carbamoyl)benzo[b]thiophen-5-yl)difluoromethyl)phosphonic acid]: the 50% inhibitory concentration (IC50) in test [1] was 300 to 3000 nM; in test [2], below 100 nM.
